From US20240366523A1, “PATCH AND PRODUCTION METHOD THEREOF” (KANEKA CORPORATION, priority 2021, published 2024)

Assay: Kinematic viscosity of non-volatile hydrocarbon oil
Format: physicochemical
Conditions: viscosity measuring temperature 40 ° C.
Excerpt: The “kinematic viscosity” is a value obtained by converting a viscosity (mPa·s) measured according to “Method II Viscosity measurement by rotational viscometer (2.12 Single cylinder-type rotational viscometer (Brookfield type viscometer)” in “2.53 Viscosity Determination” of General Tests in “Japanese Pharmacopoeia 17th Edition” into a kinematic viscosity.

Kinematic viscosity: 20.5 mm^2/s
Structure (SMILES): CC(C)CCCC(C)CCCC(C)CCCCC(C)CCCC(C)CCCC(C)C (stereo not shown) [SQUALANE]
